{"source": "patent US11655239B2", "about": "(SHANGHAI INSTITUTE OF MATERIAL MEDICA, CHINESE ACADEMY OF …, priority 2019, dated 2023)", "key": {"C-Kit": {"target": "C-Kit (Homo sapiens (Human), UniProt P10721)", "sequence (P10721 26-976)": "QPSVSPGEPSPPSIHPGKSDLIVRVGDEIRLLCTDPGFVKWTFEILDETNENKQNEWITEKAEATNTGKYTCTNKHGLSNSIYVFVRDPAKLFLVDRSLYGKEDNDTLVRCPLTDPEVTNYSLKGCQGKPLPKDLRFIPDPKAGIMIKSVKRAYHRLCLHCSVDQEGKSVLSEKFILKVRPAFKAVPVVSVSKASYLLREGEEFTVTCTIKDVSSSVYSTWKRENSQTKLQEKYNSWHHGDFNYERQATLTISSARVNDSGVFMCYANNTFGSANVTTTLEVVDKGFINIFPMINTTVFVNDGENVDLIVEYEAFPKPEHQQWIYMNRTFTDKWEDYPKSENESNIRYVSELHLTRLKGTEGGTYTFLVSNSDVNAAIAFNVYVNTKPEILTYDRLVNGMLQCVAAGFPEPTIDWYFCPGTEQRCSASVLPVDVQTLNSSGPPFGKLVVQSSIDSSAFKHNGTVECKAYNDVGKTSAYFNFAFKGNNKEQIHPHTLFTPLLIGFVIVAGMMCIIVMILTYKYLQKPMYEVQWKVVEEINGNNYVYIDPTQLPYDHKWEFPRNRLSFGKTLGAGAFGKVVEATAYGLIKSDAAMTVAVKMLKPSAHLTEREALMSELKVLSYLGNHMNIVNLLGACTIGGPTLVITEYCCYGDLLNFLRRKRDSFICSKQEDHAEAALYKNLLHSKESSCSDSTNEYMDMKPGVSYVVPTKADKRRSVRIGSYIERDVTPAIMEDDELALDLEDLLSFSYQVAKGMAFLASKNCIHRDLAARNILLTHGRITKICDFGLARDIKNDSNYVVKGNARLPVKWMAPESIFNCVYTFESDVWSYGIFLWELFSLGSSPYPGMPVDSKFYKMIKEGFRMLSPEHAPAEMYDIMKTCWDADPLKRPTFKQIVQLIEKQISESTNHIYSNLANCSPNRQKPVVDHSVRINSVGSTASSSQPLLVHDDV", "assay": "Enzyme selectivity test (ELISA), C-Kit", "assay_type": "biochemical", "experimental": "(§1) 1) Enzyme reaction substrate Poly(Glu, Tyr) 4:1 was diluted to 20 μg/mL with potassium-free PBS (10 mM sodium phosphate buffer, 150 mM NaCl, pH 7.2-7.4), and the microtiter plate was coated with 125 μL/well and placed at 37° C. for 12-16 hours of reaction. The liquid in the well was discard. The plate was washed three times with T-PBS (potassium-free PBS containing 0.1% Tween-20, 200 μL/well), 5 minutes each time. The ELISA plate was dried in an oven at 37° C. for 1 to 2 hours.\n(§2) 2) Reaction buffer (50 mM HEPES pH 7.4, 50 mM MgCl2, 0.5 mM MnCl2, 0.2 mM Na3VO4, 1 mM DTT) diluted ATP solution (49 μL) was added to each well, 1 μL of the compound to be tested was added to each well, and then 50 μL of DDR2 kinase domain recombinant protein diluted in the reaction buffer was added to start the reaction. Two control wells without ATP were set in each experiment. The plate placed on a shaker (100 rpm) at 37° C. for 1 hour of reaction. The liquid in the well was discarded and the plate was washed three times with T-PBS.\n(§3) 3) Antibody PY99 dilution solution (the antibody was diluted 1:500 with T-PBS containing BSA 5 mg/mL) was added at 100 μL/well, and shaken on a shaker at 37° C. for 0.5 hour of reaction. The liquid in the well was discarded and the plate was washed three times with T-PBS.\n(§4) 4) Horseradish peroxidase labeled goat anti-murine secondary antibody dilution solution (the antibody is diluted 1:2000 with T-PBS containing BSA 5 mg/ml) was added at 100 μL/well, and shaken on a shaker at 37° C. for 0.5 hour of reaction. The liquid in the well was discarded and the plate was washed three times with T-PBS.\n(§5) 5) 2 mg/ml of OPD color developing solution [diluted with 0.1 M citric acid-sodium citrate buffer (pH=5.4) containing 0.03% H2O2] was added at 100 μL/well and reacted for 1 to 10 minutes at 25° C. in the dark.\n(§6) 6) 2M H2SO4 was added at 50 μL/well to stop the reaction, and a tunable wavelength microplate reader VERSAmax was used for reading at a wavelength of 490 nm.\n(§7) The IC50 value was obtained by four-parameter regression using the software that came with the microplate reader. […]"}, "Src": {"target": "Src (Homo sapiens (Human), UniProt P12931)", "sequence (P12931 whole entry, looked up, species assumed)": "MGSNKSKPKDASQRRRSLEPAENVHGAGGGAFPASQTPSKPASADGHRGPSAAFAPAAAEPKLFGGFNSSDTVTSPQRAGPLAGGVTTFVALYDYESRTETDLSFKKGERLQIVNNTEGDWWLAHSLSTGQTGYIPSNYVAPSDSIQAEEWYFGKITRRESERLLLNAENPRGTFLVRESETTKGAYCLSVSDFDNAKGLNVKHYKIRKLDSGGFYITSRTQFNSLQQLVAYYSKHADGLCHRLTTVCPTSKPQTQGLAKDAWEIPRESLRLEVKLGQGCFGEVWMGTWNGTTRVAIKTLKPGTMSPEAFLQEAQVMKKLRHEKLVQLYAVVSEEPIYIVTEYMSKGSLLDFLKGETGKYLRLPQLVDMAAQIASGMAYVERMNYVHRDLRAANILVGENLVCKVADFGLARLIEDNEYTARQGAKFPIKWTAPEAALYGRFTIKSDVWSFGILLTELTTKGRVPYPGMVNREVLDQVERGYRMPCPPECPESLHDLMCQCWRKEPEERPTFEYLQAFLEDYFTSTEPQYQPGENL", "assay": "Enzyme selectivity test (ELISA), Src", "assay_type": "biochemical", "experimental": "as §1, §2, §3, §4, §5, §6, §7"}, "AXL": {"target": "AXL (Homo sapiens (Human), UniProt P30530)", "sequence (P30530 26-894, species assumed)": "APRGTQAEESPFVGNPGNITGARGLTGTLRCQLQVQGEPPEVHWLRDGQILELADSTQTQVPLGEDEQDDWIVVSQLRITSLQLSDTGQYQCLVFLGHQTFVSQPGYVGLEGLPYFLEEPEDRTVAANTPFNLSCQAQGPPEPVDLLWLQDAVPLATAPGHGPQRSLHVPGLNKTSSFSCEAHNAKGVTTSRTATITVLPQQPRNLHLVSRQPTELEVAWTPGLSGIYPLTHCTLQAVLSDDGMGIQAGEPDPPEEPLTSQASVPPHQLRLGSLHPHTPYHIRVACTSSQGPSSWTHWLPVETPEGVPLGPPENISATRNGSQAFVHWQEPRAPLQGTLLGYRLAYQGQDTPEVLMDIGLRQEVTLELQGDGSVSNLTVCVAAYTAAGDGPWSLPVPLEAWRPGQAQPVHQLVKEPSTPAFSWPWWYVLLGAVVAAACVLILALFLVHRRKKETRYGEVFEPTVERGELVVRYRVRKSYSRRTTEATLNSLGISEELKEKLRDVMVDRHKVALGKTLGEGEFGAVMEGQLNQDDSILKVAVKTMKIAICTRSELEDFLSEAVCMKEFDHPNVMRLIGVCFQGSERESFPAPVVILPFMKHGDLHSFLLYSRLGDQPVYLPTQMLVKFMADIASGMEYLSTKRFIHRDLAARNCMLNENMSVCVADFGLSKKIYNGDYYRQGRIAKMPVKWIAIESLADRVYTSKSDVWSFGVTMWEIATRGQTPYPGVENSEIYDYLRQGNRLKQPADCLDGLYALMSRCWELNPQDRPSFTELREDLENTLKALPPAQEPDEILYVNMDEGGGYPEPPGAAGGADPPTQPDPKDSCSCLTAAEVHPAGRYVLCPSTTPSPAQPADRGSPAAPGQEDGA", "assay": "Enzyme selectivity test (ELISA), AXL", "assay_type": "biochemical", "experimental": "as §1, §2, §3, §4, §5, §6, §7"}, "Met": {"target": "Met (Homo sapiens (Human), UniProt P08581)", "assay": "Enzyme selectivity test (ELISA), Met", "assay_type": "biochemical", "experimental": "as §1, §2, §3, §4, §5, §6, §7"}, "FGFR-1": {"target": "FGFR-1 (Homo sapiens (Human), UniProt P11362)", "sequence (P11362 22-822, species assumed)": "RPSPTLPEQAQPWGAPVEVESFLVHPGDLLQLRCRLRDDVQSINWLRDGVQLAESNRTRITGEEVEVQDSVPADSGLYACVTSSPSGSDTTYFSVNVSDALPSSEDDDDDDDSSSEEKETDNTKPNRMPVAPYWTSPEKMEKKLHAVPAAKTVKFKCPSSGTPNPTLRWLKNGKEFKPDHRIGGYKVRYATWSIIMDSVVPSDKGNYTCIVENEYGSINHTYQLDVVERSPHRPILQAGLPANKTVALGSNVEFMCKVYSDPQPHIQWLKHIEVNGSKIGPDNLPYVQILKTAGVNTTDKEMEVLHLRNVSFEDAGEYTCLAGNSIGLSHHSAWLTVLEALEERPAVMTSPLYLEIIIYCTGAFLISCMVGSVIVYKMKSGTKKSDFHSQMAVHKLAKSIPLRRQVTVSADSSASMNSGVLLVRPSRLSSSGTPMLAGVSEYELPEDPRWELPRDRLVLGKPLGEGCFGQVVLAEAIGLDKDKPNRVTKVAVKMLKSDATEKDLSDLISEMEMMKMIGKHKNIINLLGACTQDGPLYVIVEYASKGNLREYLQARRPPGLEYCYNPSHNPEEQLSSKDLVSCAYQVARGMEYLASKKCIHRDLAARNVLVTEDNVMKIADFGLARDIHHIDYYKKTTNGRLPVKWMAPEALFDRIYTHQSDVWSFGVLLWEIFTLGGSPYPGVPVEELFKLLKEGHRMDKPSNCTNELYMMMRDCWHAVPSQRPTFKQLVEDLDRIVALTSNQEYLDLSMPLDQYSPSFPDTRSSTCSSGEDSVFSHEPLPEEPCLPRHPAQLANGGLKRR", "assay": "Enzyme selectivity test (ELISA), FGFR-1", "assay_type": "biochemical", "experimental": "as §1, §2, §3, §4, §5, §6, §7"}, "KDR": {"target": "KDR (Homo sapiens (Human), UniProt P35968)", "sequence (P35968 20-1356, species assumed)": "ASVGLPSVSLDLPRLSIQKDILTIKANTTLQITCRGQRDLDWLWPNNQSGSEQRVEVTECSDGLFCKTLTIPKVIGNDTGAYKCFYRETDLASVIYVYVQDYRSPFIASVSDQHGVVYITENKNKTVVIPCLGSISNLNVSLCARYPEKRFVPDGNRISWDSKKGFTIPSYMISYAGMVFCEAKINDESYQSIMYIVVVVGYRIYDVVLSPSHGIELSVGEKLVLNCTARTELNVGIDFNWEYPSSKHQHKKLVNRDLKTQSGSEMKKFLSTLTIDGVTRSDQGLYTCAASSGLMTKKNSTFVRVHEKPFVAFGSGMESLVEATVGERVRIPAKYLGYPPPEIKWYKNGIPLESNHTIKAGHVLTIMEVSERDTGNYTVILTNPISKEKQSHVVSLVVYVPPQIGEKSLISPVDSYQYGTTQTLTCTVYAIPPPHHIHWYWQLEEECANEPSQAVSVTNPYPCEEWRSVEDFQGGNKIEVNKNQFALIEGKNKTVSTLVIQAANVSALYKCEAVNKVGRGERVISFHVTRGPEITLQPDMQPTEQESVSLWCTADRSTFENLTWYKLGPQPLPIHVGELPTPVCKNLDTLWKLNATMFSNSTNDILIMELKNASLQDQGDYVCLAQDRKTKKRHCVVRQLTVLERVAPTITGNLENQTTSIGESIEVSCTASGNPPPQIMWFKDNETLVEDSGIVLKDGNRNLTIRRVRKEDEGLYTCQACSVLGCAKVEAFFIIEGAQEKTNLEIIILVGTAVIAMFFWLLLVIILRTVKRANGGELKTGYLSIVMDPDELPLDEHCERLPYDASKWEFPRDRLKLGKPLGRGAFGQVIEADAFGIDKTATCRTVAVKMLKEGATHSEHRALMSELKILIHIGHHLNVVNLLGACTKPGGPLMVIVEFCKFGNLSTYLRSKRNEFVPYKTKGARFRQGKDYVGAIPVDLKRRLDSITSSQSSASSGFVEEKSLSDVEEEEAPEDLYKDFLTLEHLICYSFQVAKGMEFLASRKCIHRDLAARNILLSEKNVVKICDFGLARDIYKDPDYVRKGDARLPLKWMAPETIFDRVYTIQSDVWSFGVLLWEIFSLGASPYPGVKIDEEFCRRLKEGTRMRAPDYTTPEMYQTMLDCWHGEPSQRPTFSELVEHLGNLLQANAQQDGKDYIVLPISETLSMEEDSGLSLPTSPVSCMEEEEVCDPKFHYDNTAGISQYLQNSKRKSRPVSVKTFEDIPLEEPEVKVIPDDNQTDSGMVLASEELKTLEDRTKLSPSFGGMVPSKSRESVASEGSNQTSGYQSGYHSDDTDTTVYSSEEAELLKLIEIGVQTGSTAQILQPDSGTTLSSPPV", "assay": "Enzyme selectivity test (ELISA), KDR", "assay_type": "biochemical", "experimental": "as §1, §2, §3, §4, §5, §6, §7"}, "[1]": {"test_system": "pulmonary fibrosis induced by bleomycin in mice", "assay": "Hydroxyproline level of the whole lung", "assay_type": "in vivo, mouse", "settings": "Effect example 5; compared with the BLM control group", "experimental": "The change in hydroxyproline was determined by using a hydroxyproline detection kit, the steps are as follows:\n1) The wet weights of the lung tissues in different groups were accurately weighed, and the lung tissues were placed in a 20 ml centrifuge tube after weighing.\n2) 1 ml of hydrolysate was added to a 20 ml centrifuge tube and the tube was placed in boiling water at a constant temperature for 20 minutes.\n3) The pH of the sample was adjusted to 6.0-8.0 with the reagents provided in the kit.\n4) The reagents in the centrifuge tube were made up to 10 ml with distilled water, and mixed thoroughly.\n5) 5 ml of hydrolysate was taken from the centrifuge tube, an appropriate amount of activated carbon was added, mixed thoroughly, centrifuged at 3500 rpm for 10 minutes in a centrifuge, and 1 ml of upper supernatant layer was taken for subsequent monitoring.\n6) Reagents 1, 2, and 3 were added in order, mixed thoroughly, and then placed in a water bath at 60° C. for 15 minutes, then placed at room temperature for 5 minutes, and centrifuged in a centrifuge at 3500 rpm for 10 minutes. […] Distilled water was used as the zero setting and the absorbance value of each sample at 550 nm wavelength was determined.\n7) A standard curve was drew based on the absorbance of the standard, and used as a basis to determine the hydroxyproline content of each sample. […]"}, "[2]": {"test_system": "pulmonary fibrosis induced by bleomycin in mice", "assay": "mRNA levels of fibrosis-related markers in lung tissue (qRT-PCR)", "assay_type": "in vivo, mouse", "settings": "60, 90 mg/kg", "experimental": "About 30 mg of cryopreserved lung tissue was weighed and homogenized and lysed by adding 200 μL of Trizol (Takara, 9109 #). The fluid after the lysis in the well was collected by the RNA sterilization-grade pipette tip and transferred to the corresponding sterile EP tube. […] of chloroform was added, shaken vigorously for 30 sec, and centrifuged for 15 minutes in a centrifuge at 4° C. at 12000 rpm. The upper aqueous layer was transferred to a new EP tube, an equal volume of isopropanol was used to precipitate the RNA in the aqueous phase, and the tube was allowed to stand at −20° C. for more than 1 hr. And then the tube was centrifuged for 15 min at 4° C. at 12000 rpm, and the supernatant was discarded. 75% ethanol was added to wash the RNA pellet, and then the tube was centrifuged for 15 min at 4° C. at 12000 rpm, and the supernatant was discarded. The tube was placed at room temperature for 10-20 min to dry the RNA pellet. 25-200 μL of RNase-free water was added for dissolution and stored at −80° C.\nPrimeScript™ RT Master Mix (Takara, RR036A) was selected for mRNA reverse transcription. Please refer to the instructions for the system. In short, 1 μg of mRNA was added to a 20 μL system, mixed and then kept at a constant temperature in a 37° C. water bath for 15 minutes, and then the enzyme was inactivated at 85° C. for 5 seconds. After centrifugation, double distilled water was used to dilute 10 times.\nQ-PCR technology used 2×SYBR Green qPCR Master Mix (B21202, Biomake), and the reaction system could be prepared according to the instruction (10 μL of 2×SYBGreen, 8.8 μL of cDNA template, 1.2 μL of 5 μM primer Mix). The reaction conditions are: pre-denaturation at 95° C. for 5 min, denaturation at 95° C. for 30 sec, annealing at 60° C. for 30 sec, and extension at 72° C. for 30 sec, the number of reaction cycles is 40 cycles.\nThe experiment used qRT-PCR technology to determine the mRNA levels of fibrosis-related markers in lung tissue.\nThe experimental method was the same as that for the evaluation of the mRNA levels of inflammatory cytokines."}}}
{"smiles": "O=C(Nc1cccc(C(F)(F)F)c1)c1ccc(C2CC2)c(-c2ccc3nc(Nc4cnn(C5CC5)c4)ncc3c2)c1", "note": "[Compound S15, 4-cyclopropyl-3-(2-((1-cyclopropyl-1H-pyrazol-4-yl)amino)quinazolin-6-yl)-N-(3-(trifluoromethyl)phenyl)benzamide]", "values": [{"measurement": "IC50", "setting": "C-Kit", "value": "> 1000", "unit": "nM"}, {"measurement": "IC50", "setting": "Src", "value": "> 100", "unit": "nM"}, {"measurement": "IC50", "setting": "AXL", "value": "> 1000", "unit": "nM"}, {"measurement": "IC50", "setting": "Met", "value": "> 1000", "unit": "nM"}, {"measurement": "IC50", "setting": "FGFR-1", "value": "> 10", "unit": "nM"}, {"measurement": "IC50", "setting": "KDR", "value": "< 10", "unit": "nM"}, {"measurement": "hydroxyproline level of the whole lung", "setting": "[1]", "value": "significantly reduce the level of hydroxyproline"}, {"measurement": "reduction of expression (mRNA) of Collagen1-α1", "setting": "[2]", "value": "about 90%"}, {"measurement": "reduction of expression (mRNA) of TGF-β1", "setting": "[2]", "value": "about 90%"}, {"measurement": "reduction of expression (mRNA) of α-SMA", "setting": "[2]", "value": "about 90%"}]}
